Reference: ChEMBL document CHEMBL5247622, “Structural optimization of Imidazo[1, 2-a]pyridine derivatives for the treatment of gastric cancer via STAT3 signaling pathway” (Eur J Med Chem, 2022)
Activity calls are given as the source filed them. No cut-off for these calls is given here.

Legend:
AGS [1] = experiment: Antiproliferative activity against human AGS cells assessed as reduction in cell viability incubated for 72 hrs by CCK-8 assay; assay type: functional, cell-based
MGC-803 [2] = experiment: Antiproliferative activity against human MGC-803 cells assessed as reduction in cell viability incubated for 72 hrs by CCK-8 assay; assay type: functional, cell-based; conditions: MGC-803, 72 h
[3] = target: Signal transducer and activator of transcription 3 (Homo sapiens) (UniProt P40763); experiment: Inhibition of STAT3 (unknown origin) transcriptional signaling transfected in HEK293T cells at 3 uM incubated for 24 hrs by firefly luciferase gene reporter assay; assay type: cell-based
[4] = Metabolic stability in human liver microsomes assessed as half life; assay type: ADME, Microsome
AGS [5] = experiment: Induction of apoptosis in human AGS cells assessed as late apoptotic cells at 0.3 uM incubated for 48 hrs by Annexin V-FITC/PI staining based flow cytometry method (reference value: 2.46 %); assay type: functional
MGC-803 [6] = experiment: Antitumor activity against human MGC-803 cells xenografted in BALB/c mouse assessed as tumor growth inhibition at 15 mg/kg,ip administrated for 21 consecutive days relative to control; assay type: functional; conditions: read-out: TGI
AGS [7] = experiment: Induction of apoptosis in human AGS cells assessed as viable cells at 3 uM incubated for 48 hrs by Annexin V-FITC/PI staining based flow cytometry method (reference value: 94.8 %); assay type: functional; conditions: read-out: Activity
[8] = target: Signal transducer and activator of transcription 3 (Homo sapiens) (UniProt P40763); experiment: Thermal stabilization of STAT3 in human AGS cells at 1 uM at 37 to 54 degreeC incubated for 1 hr by cellular thermal shift assay; assay type: cell-based
AGS [9] = experiment: Induction of apoptosis in human AGS cells assessed as viable cells at 1 uM incubated for 48 hrs by Annexin V-FITC/PI staining based flow cytometry method (reference value: 94.8 %); assay type: functional; conditions: read-out: Activity
AGS [10] = experiment: Induction of apoptosis in human AGS cells assessed as necrotic cells at 0.3 uM incubated for 48 hrs by Annexin V-FITC/PI staining based flow cytometry method (reference value: 0.32 %); assay type: functional
MGC-803 [11] = experiment: Antitumor activity against human MGC-803 cells xenografted in BALB/c mouse assessed as inhibition of tumor weight at 15 mg/kg,ip administrated for 21 consecutive days; assay type: functional, organism-based
MGC-803 [12] = experiment: Inhibition of colony formation in human MGC-803 cells at 0.3 to 3 uM incubated for 10 to 15 days by crystal violet staining based assay; assay type: functional, cell-based; conditions: dose 0.3-3 µM, time 10-15 day
AGS [13] = experiment: Induction of apoptosis in human AGS cells assessed as necrotic cells at 3 uM incubated for 48 hrs by Annexin V-FITC/PI staining based flow cytometry method (reference value: 0.32 %); assay type: functional
AGS [14] = experiment: Induction of apoptosis in human AGS cells assessed as viable cells at 0.3 uM incubated for 48 hrs by Annexin V-FITC/PI staining based flow cytometry method (reference value: 94.8 %); assay type: functional; conditions: read-out: Activity
AGS [15] = experiment: Induction of apoptosis in human AGS cells assessed as early apoptotic cells at 3 uM incubated for 48 hrs by Annexin V-FITC/PI staining based flow cytometry method (reference value: 2.38 %); assay type: functional
AGS [16] = experiment: Induction of apoptosis in human AGS cells assessed as necrotic cells at 1 uM incubated for 48 hrs by Annexin V-FITC/PI staining based flow cytometry method (reference value: 0.32 %); assay type: functional
AGS [17] = experiment: Induction of apoptosis in human AGS cells assessed as early apoptotic cells at 0.3 uM incubated for 48 hrs by Annexin V-FITC/PI staining based flow cytometry method (reference value: 2.38 %); assay type: functional
AGS [18] = experiment: Induction of apoptosis in human AGS cells assessed as late apoptotic cells at 3 uM incubated for 48 hrs by Annexin V-FITC/PI staining based flow cytometry method (reference value: 2.46 %); assay type: functional
AGS [19] = experiment: Inhibition of colony formation in human AGS cells at 0.3 to 3 uM incubated for 10 to 15 days by crystal violet staining based assay; assay type: functional, cell-based; conditions: dose 0.3-3 µM, time 10-15 day
AGS [20] = experiment: Induction of apoptosis in human AGS cells assessed as early apoptotic cells at 1 uM incubated for 48 hrs by Annexin V-FITC/PI staining based flow cytometry method (reference value: 2.38 %); assay type: functional
AGS [21] = experiment: Induction of apoptosis in human AGS cells assessed as late apoptotic cells at 1 uM incubated for 48 hrs by Annexin V-FITC/PI staining based flow cytometry method (reference value: 2.46 %); assay type: functional
MGC-803 [22] = experiment: Antitumor activity against human MGC-803 cells xenografted in BALB/c mouse assessed as inhibition of tumor volume at 15 mg/kg,ip administrated for 21 consecutive days; assay type: functional, organism-based

Chain of Signal transducer and activator of transcription 3 (Homo sapiens) (P40763 whole entry): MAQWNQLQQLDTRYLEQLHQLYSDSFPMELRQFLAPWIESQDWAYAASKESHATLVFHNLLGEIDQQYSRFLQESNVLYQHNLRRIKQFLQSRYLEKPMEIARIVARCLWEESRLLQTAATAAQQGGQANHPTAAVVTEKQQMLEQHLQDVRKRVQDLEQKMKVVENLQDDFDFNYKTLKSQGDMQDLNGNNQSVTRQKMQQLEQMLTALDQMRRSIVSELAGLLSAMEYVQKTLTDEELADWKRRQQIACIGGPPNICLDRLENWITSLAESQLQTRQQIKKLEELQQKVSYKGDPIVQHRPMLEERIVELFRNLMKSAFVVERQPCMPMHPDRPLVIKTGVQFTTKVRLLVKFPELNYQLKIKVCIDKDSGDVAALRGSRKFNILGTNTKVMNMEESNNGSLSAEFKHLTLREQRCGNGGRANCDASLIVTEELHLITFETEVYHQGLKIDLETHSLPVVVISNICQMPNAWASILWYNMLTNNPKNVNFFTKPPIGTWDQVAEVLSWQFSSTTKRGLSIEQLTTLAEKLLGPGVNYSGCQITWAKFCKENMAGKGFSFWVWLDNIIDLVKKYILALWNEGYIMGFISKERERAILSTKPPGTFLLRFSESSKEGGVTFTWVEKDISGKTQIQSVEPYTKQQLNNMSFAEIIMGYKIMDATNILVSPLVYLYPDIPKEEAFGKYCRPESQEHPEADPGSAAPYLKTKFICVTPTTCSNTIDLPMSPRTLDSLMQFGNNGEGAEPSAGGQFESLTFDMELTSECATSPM

| SMILES | IC50 (AGS [1]) | IC50 (MGC-803 [2]) | inhibition [3] | half-life [4] | also measured |
| --- | --- | --- | --- | --- | --- |
| O=C(Nc1ccc(-c2cnc3cc(Cl)ccn23)cc1)c1ccc([N+](=O)[O-])o1 | 1700 nM | 4620 nM | – | – | – |
| O=C(Nc1ccc(-c2cnc3cc(N4CCN(C5CC5)CC4)ccn23)cc1)c1ccc([N+](=O)[O-])o1 | 1920 nM | 1650 nM | – | – | – |
| Cc1cc(-c2cnc3ccccn23)ccc1NC(=O)c1ccc([N+](=O)[O-])o1 | 730 nM | 1830 nM | Active | 36.7 min | – |
| CN1CCN(c2ccn3c(-c4ccc(NC(=O)c5ccc([N+](=O)[O-])o5)cc4)cnc3c2)CC1 | 2340 nM | 1580 nM | – | – | – |
| O=C(Nc1ccc(-c2cnc3cc(N4CCOCC4)ccn23)cc1)c1ccc([N+](=O)[O-])o1 | 2220 nM | 7410 nM | – | – | – |
| O=C(Nc1ccc(-c2cnc3cc(Br)ccn23)cc1)c1ccc([N+](=O)[O-])o1 | 560 nM | 750 nM | – | – | – |
| COc1ccn2c(-c3ccc(NC(=O)c4ccc([N+](=O)[O-])o4)cc3OC)cnc2c1 | > 20000 nM | > 20000 nM | – | – | – |
| COc1ccn2c(-c3ccc(NC(=O)c4ccc([N+](=O)[O-])o4)c(C(F)(F)F)c3)cnc2c1 | 710 nM | 2910 nM | Active | 24.2 min | – |
| COc1ccn2c(-c3ccc(NC(=O)c4ccc([N+](=O)[O-])o4)cc3)cnc2c1 | 720 nM | 860 nM | Active | 28.3 min | – |
| COc1ccn2c(-c3ccc(NC(=O)c4ccc([N+](=O)[O-])o4)c(C)c3)cnc2c1 | 430 nM | 1380 nM | Active | 39.9 min | – |
| O=C(Nc1ccc(-c2cnc3ccccn23)cc1)c1ccc([N+](=O)[O-])o1 | 360 nM | 590 nM | Active | 24.7 min | – |
| O=C(Nc1ccc(-c2cnc3cc(C4=CCNCC4)ccn23)cc1)c1ccc([N+](=O)[O-])o1 | 1280 nM | 790 nM | Active | 12.2 min | – |
| CC1(O)CCN(c2ccn3c(-c4ccc(NC(=O)c5ccc([N+](=O)[O-])o5)cc4)cnc3c2)CC1 | 1530 nM | 3100 nM | – | – | – |
| O=C(Nc1ccc(-c2cnc3cc(N4CCS(=O)(=O)CC4)ccn23)cc1)c1ccc([N+](=O)[O-])o1 | 2130 nM | 3040 nM | – | – | – |
| O=C(Nc1ccc(-c2cnc3cc(N4CCC4)ccn23)cc1)c1ccc([N+](=O)[O-])o1 | > 5000 nM | > 5000 nM | – | – | – |
| COc1ccn2c(-c3ccc(NC(=O)c4ccc([N+](=O)[O-])o4)c(C)c3C(F)(F)F)cnc2c1 | 2100 nM | 2720 nM | Active | 50.1 min | – |
| CC(=O)N1CC=C(c2ccn3c(-c4ccc(NC(=O)c5ccc([N+](=O)[O-])o5)cc4)cnc3c2)CC1 | 410 nM | 940 nM | Active | 13.5 min | – |
| O=C(Nc1ccc(-c2cnc3cc(C4=CCN(C5COC5)CC4)ccn23)cc1)c1ccc([N+](=O)[O-])o1 | 790 nM | 1100 nM | – | – | – |
| CN1CCCN(c2ccn3c(-c4ccc(NC(=O)c5ccc([N+](=O)[O-])o5)cc4)cnc3c2)CC1 | 2700 nM | 3580 nM | – | – | – |
| O=C(Nc1ccc(-c2cnc3cc(N4CCCC4)ccn23)cc1)c1ccc([N+](=O)[O-])o1 | 1240 nM | 1150 nM | – | – | – |
| COc1ccn2c(-c3ccc(NC(=O)c4ccc([N+](=O)[O-])o4)cc3F)cnc2c1 | 700 nM | 1080 nM | Active | 25.7 min | – |
| COc1ccn2c(-c3ccc(NC(=O)c4ccc([N+](=O)[O-])o4)cc3C)cnc2c1 | 640 nM | 1030 nM | Active | 43 min | – |
| COc1ccn2c(-c3ccc(NC(=O)c4ccc([N+](=O)[O-])o4)nc3)cnc2c1 | > 20000 nM | > 20000 nM | – | – | – |
| COc1ccn2c(-c3ccc(NC(=O)c4ccc([N+](=O)[O-])o4)c(OC)c3)cnc2c1 | 3880 nM | 7520 nM | – | – | – |
| O=C(Cc1c(-c2ccccc2)nc2ccccn12)Nc1ccc2c(c1)S(=O)(=O)C=C2 | 1550 nM | – | Active | 24.2 min | Activity (AGS [5]): 3.01%; inhibition in vivo at 15 mg/kg (MGC-803 [6]): 54.5%; viability at 3 µM (AGS [7]): 90.2%; Activity [8]: Active; viability at 1 µM (AGS [9]): 91.8%; Activity (AGS [10]): 0.29%; inhibition (MGC-803 [11]): Active; inhibition (MGC-803 [12]): Dose-Dependent Effect; Activity (AGS [13]): 0.5%; viability at 0.3 µM (AGS [14]): 94.1%; Activity (AGS [15]): 7.98%; Activity (AGS [16]): 0.19%; Activity (AGS [17]): 2.59%; Activity (AGS [18]): 1.3%; inhibition (AGS [19]): Dose-Dependent Effect; Activity (AGS [20]): 3.19%; Activity (AGS [21]): 4.84%; inhibition (MGC-803 [22]): Active |
